Tests used:
[1] = system: FeCl3-induced inferior vena cava thrombosis; assay: FeCl3-induced inferior vena cava thrombosis in rats; assay type: in vivo, rat
Protocol: (§1) 160 Rats were randomly divided into groups, 5 to 10 rats per group.
(§2) According to the body weight in kilograms of the rats, the first dose of a drug was dissolved in 2 mL of physiological saline for single bolus injection. The maintaining dose of drug was dissolved in 9 ml of physiological saline, and placed in a double-channel micro-injection pump, which was dripped off within 90 minutes at a dripping speed of 0.1 ml/min. The sham operation group was administered with the same volume of physiological saline.
(§3) The rats were fasted with free access to water overnight before the experiment.
15 minutes later, the filter paper was removed. And then, after observation for 45 minutes, the blood vessels and local tissues were rinsed with warm physiological saline, and the covered blood vessels were cut off. The thrombus which attached to the blood vessel walls was peeled off to be weighed on a tin foil for its wet weight, and then weighed overnight at room temperature for its dry weight. The administration was continued until the completion of the experiment.
After the experiment was completed, the segment of the blood vessels in which there had been thrombus formation was cut off, weighed for the wet weight, and then weighed overnight at room temperature for the dry weight of the thrombus. Thrombosis inhibitory rate was calculated.

[2] = system: blood coagulation function; assay: APTT in rats, intravenous maintenance administration; assay type: in vivo, rat
Protocol: as §1, §2, §3
The blood samples were taken before administration, administration for 60 minutes, and before termination of administration, respectively, to determine their activated partial thromboplastin time (APTT) and prothrombin time (PT). The blood samples were centrifuged at 3510 rpm for 8 minutes to obtain platelet poor plasma (PPP). Reagent reconstruction and preservation were performed according to the operation requirements of the kit. Immediately after each blood sample was placed into a test cup and then PT and APTT reagents were added, the test was started. After the test was completed, results were recorded.
5.1 Determination of blood coagulation function: The blood samples were taken 0 min before administration, administration for 60 minutes, and termination of administration, respectively, and then determined using a platelet-aggregation coagulation factor analyzer for the blood coagulation functions (PT. APTT) and ACT.

[3] = system: femoral arterial and venous bypass thrombosis; assay: Femoral arterial and venous bypass thrombosis in rabbits, single intravenous administration; assay type: in vivo, rabbit; settings: 15 min
Protocol: (§4) 1. Grouping and administration: 48 Rabbits were randomly divided into 6 groups, 8 rabbits per group. 1) Sham operation group (NS): Intravenous injection of the same volume of physiological saline; 2) positive control bivalirudin group (6 mg/kg); 3) positive control enoxaparin group (200 U/kg); 4) Low dose group of polypeptide 2 (3.0 mg/kg); 5) Medium dose group of polypeptide 2 (6.0 mg/kg); 6) High dose group of polypeptide 2 (12.0 mg/kg). Polypeptide 2 was administered by single intravenous administration. According to the body weight in kilograms of the rabbits, the sample was dissolved in 2 mL of physiological saline for single bolus injection. The sham operation group was administered with the same volume of physiological saline.
2.1 Surgery preparation of rabbits: Rabbit were sent to the laboratory for accommodation for one day, and then screened at first. Blood samples were taken from arteries within ears, which were subjected to blood routine analysis and APTT examinations, and the rabbits with a normal blood hemogram and APTT between 16 and 28 seconds were selected for experiments. The rabbits to be tested were fasted with free access to water in the night before the experiment. The rabbits were anesthetized with intravenous injection of 3% sodium pentobarbital solution at 1 ml/kg, fixed in the supine position, and then, the common carotid artery at one side, external jugular vein, femoral artery at one side, femoral vein, and forelimb vein at one side were isolated. The forelimb vein was subjected to intubation for administration; the left femoral vein was subjected to intubation for blood collection to determine the platelet aggregation rate: the femoral artery was used for the establishment of an arterial thrombosis model; the common carotid artery and external jugular vein were used for the establishment of an arterial and venous bypass thrombosis model.
2.2 Arterial and venous bypass thrombosis (AVST) model: An arterial and venous shunt consists of two casings, of which an outer casing has a length of about 8 cm and an inner diameter of 7.9 mm, the inner casing has a length of about 2.5 cm and an inner diameter of 4.8 mm. The polyethylene tube was charged with a silk thread about 8 cm long and filled with […] heparin solution, of which one end was inserted into the left femoral artery and the other end was inserted into the right femoral vein. After administration for 30 seconds, the blood flow was released, which flowed from the left artery to the polyethylene tube and returned to the right vein. After 15 minutes, the blood flow was interrupted, the silk thread was quickly removed and placed on an aluminum foil (size: 2.5 cm×2.5 cm), measured for its wet weight, and kept overnight at room temperature and weighed for its dry weight.
The femoral arteries in the […] and both sides in the rabbits were isolated and stabilized for 10 min before the administration was started. An AT model was established by covering the femoral artery with 50% FeCl3 filter paper while administration, and the filter paper was removed after covering for 15 minutes. An AVST model was established and it was taken out after […]. Observation was continued for 120 min after administration until the experiment was completed.
3.4 Thrombus weight: After the experiment was completed, the segment of the blood vessels in which there had been thrombus formation was cut off, weighed for the wet weight, and then kept overnight at room temperature and weighed for the dry weight. The thrombosis inhibitory rate was calculated with a calculation equation as follows: […]

platelet aggregation = assay: Platelet aggregation in rabbits, single intravenous administration; assay type: in vivo, rabbit
Protocol: as §4
3.1 Platelet aggregation rate: 2.7 ml of blood was taken from the femoral vein, rapidly injected into a centrifuge tube containing 0.3 ml of 3.8% sodium citrate solution, and fully mixed well. The resulted blood samples were centrifuged at 810 rpm (100 g) for 8 min to obtain PRP, which was taken out and centrifuged at 3500 rpm (1863 g) for 8 min to obtain PPP, which was used to determine platelet aggregation.
Blood samples were taken at a point before administration (0 min), and at points of administration for 5 min and 15 min, respectively, to determine the platelet aggregation rate, which was used to calculate the inhibitory rate of platelet aggregation with a calculation equation as follows: […]

[4] = iv 0.08 + 0.325 (mg/kg + mg/kg/h)
[5] = iv 0.17 + 0.65 (mg/kg + mg/kg/h)
[6] = iv 0.35 + 1.3 (mg/kg + mg/kg/h)
[7] = iv 0.35 + 3.3 (mg/kg + mg/kg/h)

Enoxaparin
Inferior vena cava thrombosis Inhibition percentage ([1]; iv 30 + 45 u (U/kg+U/kg/h)): 34.93%
Inferior vena cava thrombosis Thrombus weight ([1]; iv 30 + 45 u (U/kg+U/kg/h)): 14.67 ± 8.44 mg
Inferior vena cava thrombosis Inhibition percentage ([1]; iv 30 + 120 u (U/kg+U/kg/h)): 49.07%
Inferior vena cava thrombosis Thrombus weight ([1]; iv 30 + 120 u (U/kg+U/kg/h)): 11.48 ± 2.81 mg
Inferior vena cava thrombosis Inhibition percentage ([1]; iv 60 + 60 u (U/kg+U/kg/h)): 50.42%
Inferior vena cava thrombosis Thrombus weight ([1]; iv 60 + 60 u (U/kg+U/kg/h)): 11.18 ± 4.47 mg
Inferior vena cava thrombosis Inhibition percentage ([1]; iv 60 + 240 u (U/kg+U/kg/h)): 86.25%
Inferior vena cava thrombosis Thrombus weight ([1]; iv 60 + 240 u (U/kg+U/kg/h)): 6.59 ± 2.54 mg
Inferior vena cava thrombosis Inhibition percentage ([1]; iv 90 + 120 u (U/kg+U/kg/h)): 64.06%
Inferior vena cava thrombosis Thrombus weight ([1]; iv 90 + 120 u (U/kg+U/kg/h)): 8.10 ± 3.67 mg
APTT Before administration ([2]; iv 30 + 45 u (U/kg+U/kg/h)): 28.99 ± 7.00
APTT Fold of change ([2]; iv 30 + 45 u (U/kg+U/kg/h)): 1.78 ± 0.61
APTT administration for 60 minutes ([2]; iv 30 + 45 u (U/kg+U/kg/h)): 52.28 ± 22.51
APTT Before administration ([2]; iv 30 + 120 u (U/kg+U/kg/h)): 23.66 ± 5.88
APTT Fold of change ([2]; iv 30 + 120 u (U/kg+U/kg/h)): 4.65 ± 1.72
APTT administration for 60 minutes ([2]; iv 30 + 120 u (U/kg+U/kg/h)): 117.55 ± 78.85
APTT Before administration ([2]; iv 60 + 60 u (U/kg+U/kg/h)): 23.45 ± 4.70
APTT Fold of change ([2]; iv 60 + 60 u (U/kg+U/kg/h)): 2.66 ± 0.36
APTT administration for 60 minutes ([2]; iv 60 + 60 u (U/kg+U/kg/h)): 61.81 ± 13.19
APTT Before administration ([2]; iv 60 + 240 u (U/kg+U/kg/h)): 26.79 ± 4.74
APTT Fold of change ([2]; iv 60 + 240 u (U/kg+U/kg/h)): 10.69 ± 7.14
APTT administration for 60 minutes ([2]; iv 60 + 240 u (U/kg+U/kg/h)): 270.43 ± 166.43
APTT Before administration ([2]; iv 90 + 120 u (U/kg+U/kg/h)): 19.04 ± 5.26
APTT Fold of change ([2]; iv 90 + 120 u (U/kg+U/kg/h)): 16.34 ± 12.97
APTT administration for 60 minutes ([2]; iv 90 + 120 u (U/kg+U/kg/h)): 270.85 ± 148.90
Thrombus dry weight ([3]; single iv 200 U (U/kg)): 17.3 ± 6.5 mg
Thrombus inhibitory rate ([3]; single iv 200 U (U/kg)): 26.88%
inhibitory rate of platelet aggregation (platelet aggregation; single iv 200 (U/kg), Administration for 5 min): 9.5 ± 6.2%
inhibitory rate of platelet aggregation (platelet aggregation; single iv 200 (U/kg), Administration for 15 min): 16.1 ± 6.5%

Bivalirudin: Bivalirudin for Injection, Xi'an Xintong Pharmaceutical Research Co., Ltd.; positive control thrombin inhibitor
Inferior vena cava thrombosis Inhibition percentage [1, 4]: 20.03%
Inferior vena cava thrombosis Thrombus weight [1, 4]: 18.03 ± 1.39 mg
Inferior vena cava thrombosis Inhibition percentage [1, 5]: 35.97%
Inferior vena cava thrombosis Thrombus weight [1, 5]: 14.43 ± 3.84 mg
Inferior vena cava thrombosis Inhibition percentage [1, 6]: 68.67%
Inferior vena cava thrombosis Thrombus weight [1, 6]: 7.06 ± 4.07 mg
Inferior vena cava thrombosis Inhibition percentage ([1]; iv 0.5 + 2 (mg/kg + mg/kg/h)): 67.79%
Inferior vena cava thrombosis Thrombus weight ([1]; iv 0.5 + 2 (mg/kg + mg/kg/h)): 7.26 ± 3.15 mg
APTT Before administration [2, 4]: 25.05 ± 1.78
APTT Fold of change [2, 4]: 1.36 ± 0.50
APTT administration for 60 minutes [2, 4]: 34.18 ± 12.92
APTT Before administration [2, 5]: 25.55 ± 5.02
APTT Fold of change [2, 5]: 1.66 ± 0.60
APTT administration for 60 minutes [2, 5]: 41.46 ± 14.96
APTT Before administration [2, 7]: 23.16 ± 2.37
APTT Fold of change [2, 7]: 4.10 ± 1.86
APTT administration for 60 minutes [2, 7]: 95.86 ± 45.71
APTT Before administration ([2]; iv 0.5 + 2 (mg/kg + mg/kg/h)): 24.77 ± 7.84
APTT Fold of change ([2]; iv 0.5 + 2 (mg/kg + mg/kg/h)): 3.89 ± 1.37
APTT administration for 60 minutes ([2]; iv 0.5 + 2 (mg/kg + mg/kg/h)): 90.23 ± 21.92
Thrombus dry weight ([3]; single iv 6.0 mg/kg): 20.8 ± 6.3 mg
Thrombus inhibitory rate ([3]; single iv 6.0 mg/kg): 11.86%
inhibitory rate of platelet aggregation (platelet aggregation; single iv 6.0 mg/kg, Administration for 5 min): 5.2 ± 5.8%
inhibitory rate of platelet aggregation (platelet aggregation; single iv 6.0 mg/kg, Administration for 15 min): 4.6 ± 6.0%
